# Results as given in publication PMC4973850, “Molecular structure‐function relationship of dietary polyphenols for inhibiting VEGF‐induced VEGFR‐2 activity” (Molecular Nutrition & Food Research, 2015).
# Biological target: T1, VEGF (human recombinant VEGFA165); VEGF‐induced VEGFR‐2 activation in HUVECs (Homo sapiens, UniProt P15692)
# T1 construct: purchased R&D Systems, Abingdon, UK
# T1 sequence (P15692 1-191 isoform P15692-4): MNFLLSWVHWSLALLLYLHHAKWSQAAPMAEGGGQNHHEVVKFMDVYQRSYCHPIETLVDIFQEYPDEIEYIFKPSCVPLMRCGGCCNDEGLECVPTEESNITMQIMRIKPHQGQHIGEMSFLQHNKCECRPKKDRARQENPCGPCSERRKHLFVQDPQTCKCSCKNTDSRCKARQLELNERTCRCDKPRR
# Experiment: Inhibition of VEGF‐induced VEGFR‐2 phosphorylation in HUVECs after pre‐incubating VEGF with polyphenol (Phospho‐VEGFR‐2 Tyr1175 ELISA);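 further: sandwich ELISA of VEGFR-2 phosphorylated at Tyr1175 in lysates of confluent HUVECs, with VEGF alone and DMSO vehicle (≤0.1%) as control incubations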
# Type: cell-based
# Details: for Inhibition (%): HUVECs; for IC50 (μM) / IC50: VEGF 25 ng/mL pre‐incubated 5 min with polyphenol, then HUVECs 5 min, phospho‐VEGFR‐2 ELISA, 95% confidence intervals in parentheses
smiles,measurement,setting,value
O=c1c(O)c(-c2ccccc2)oc2ccccc12 [3‐hydroxyflavone],Inhibition (%),at 100 μM polyphenol,52.8 (100 μM) %
"O=c1cc(-c2ccc(O)c(O)c2)oc2c(O)c(O)ccc12 [3′,4′,7,8‐tetrahydroxyflavone]",Inhibition (%),at 100 μM polyphenol,63.2 (100 μM) %
O=c1cc(-c2ccccc2)oc2cc(O)ccc12 [7‐hydroxyflavone],Inhibition (%),at 100 μM polyphenol,Ineffective (100 μM)
Oc1cc(O)c2c(c1)O[C@H](c1ccc(O)c(O)c1)[C@@H](O)C2 [(+)‐Catechin],IC50 (μM),,214.7 (178. 2–258.7) μM
same,IC50,listed as (+)‐catechin,215 µM
O=C1c2ccc(O)cc2O[C@H](c2cc(O)c(O)c(O)c2)[C@H]1O [(+)‐Dihydrorobinetin],Inhibition (%),at 50 μM polyphenol,66%
Oc1cc(O)c2c(c1)O[C@H](c1ccc(O)c(O)c1)[C@H](O)C2 [(−)‐Epicatechin],Inhibition (%),at 200 μM polyphenol (highest concentration tested),Ineffective (200 μM)
same,Inhibition (%),"at 200 μM polyphenol (highest concentration tested), listed as (−)‐epicatechin",not an inhibitor
same,Inhibition (%),"at 200 μM polyphenol (highest concentration tested), listed as epicatechin",ineffective
O=C(O)/C=C/c1ccc(O)c(O)c1 [Caffeic acid],Inhibition (%),at 50 μM polyphenol,Ineffective
O=C(/C=C/c1ccc(O)c(O)c1)O[C@@H]1C[C@](O)(C(=O)O)C[C@@H](O)[C@H]1O [Chlorogenic acid],Inhibition (%),at 50 μM polyphenol,Ineffective
O=c1cc(-c2ccccc2)oc2cc(O)cc(O)c12 [Chrysin],Inhibition (%),at 100 μM polyphenol,58.6 (100 μM) %
Oc1cc(O)c2cc(O)c(-c3ccc(O)c(O)c3)[o+]c2c1 [Cyanidin],IC50,,1.05 µM
same,IC50 (μM),,1.053 (0.764–1.453) μM
same,log IC50,datapoint of Fig. 3B,0.022
same,fold lower IC50 compared with (+)‐catechin,ratio of IC50 values,200 fold
"O=C(O[C@@H]1Cc2c(O)cc(O)cc2O[C@@H]1c1ccc(O)c(O)c1)c1cc(O)c(O)c(O)c1 [ECG, epicatechin gallate]",IC50 (μM),,0.16 (0.150–0.183) μM
"Oc1cc(O)c2c(c1)O[C@H](c1cc(O)c(O)c(O)c1)[C@H](O)C2 [EGC, epigallocatechin]",IC50 (μM),,42.9 (36.96–49.97) μM
"O=C(O[C@@H]1Cc2c(O)cc(O)cc2O[C@@H]1c1cc(O)c(O)c(O)c1)c1cc(O)c(O)c(O)c1 [EGCG, epigallocatechin gallate]",IC50 (μM),,0.088 (0.078–0.100) μM
same,fold lower IC50 than ECG,ratio of IC50 values,2 fold
O=C1C[C@@H](c2ccc(O)c(O)c2)Oc2cc(O)cc(O)c21 [Eriodictyol],Inhibition (%),at 50 μM polyphenol,20%
O=c1cc(-c2ccccc2)oc2ccccc12 [Flavone],Inhibition (%),at 100 μM polyphenol,Ineffective (100 μM)
same,Inhibition (%),"at 100 μM polyphenol, listed as flavone",ineffective
O=c1c(O)c(-c2ccccc2)oc2cc(O)cc(O)c12 [Galangin],Inhibition (%),at 50 μM polyphenol,85%
O=C(O)c1cc(O)c(O)c(O)c1 [Gallic acid],Inhibition (%),at 50 μM polyphenol,32%
O=c1c(-c2ccc(O)cc2)coc2cc(O)cc(O)c12 [Genistein],Inhibition (%),at 50 μM polyphenol,22%
O=c1c(O[C@@H]2O[C@H](CO)[C@@H](O)[C@H](O)[C@H]2O)c(-c2ccc(O)c(O)c2)oc2cc(O)cc(O)c12 [Hirsutrin],Inhibition (%),at 50 μM polyphenol,Ineffective
same,Inhibition (%),"at 50 μM polyphenol, listed as hirsutrin",completely ineffective
O=c1c(O[C@@H]2O[C@H](CO)[C@H](O)[C@H](O)[C@H]2O)c(-c2ccc(O)c(O)c2)oc2cc(O)cc(O)c12 [Hyperoside],Inhibition (%),at 50 μM polyphenol,Ineffective
same,Inhibition (%),"at 50 μM polyphenol, listed as hyperoside",completely ineffective
COc1cc(-c2oc3cc(O)cc(O)c3c(=O)c2O)ccc1O [Isorhamnetin],IC50 (μM),,9.053 (7.676–10.68) μM
same,fold higher IC50 than quercetin,ratio of IC50 values,12 fold
O=c1c(O)c(-c2ccc(O)cc2)oc2cc(O)cc(O)c12 [Kaempferol],IC50 (μM),,9.341 (7.749–11.26) μM
O=c1cc(-c2ccc(O)c(O)c2)oc2cc(O)cc(O)c12 [Luteolin],IC50 (μM),,7.46 (6.592–8.446) μM
COC(=O)c1cc(O)c(O)c(O)c1 [Methyl gallate],Inhibition (%),at 100 μM polyphenol,Ineffective (100 μM)
O=c1c(O)c(-c2ccc(O)cc2O)oc2cc(O)cc(O)c12 [Morin],IC50 (μM),,1.482 (1.357–1.618) μM
same,fold higher IC50 than quercetin,ratio of IC50 values,about 2 fold
O=c1c(O)c(-c2cc(O)c(O)c(O)c2)oc2cc(O)cc(O)c12 [Myricetin],IC50 (μM),,0.121(0.102–0.144) μM
same,fold lower IC50 than EGC,ratio of IC50 values,> 300 fold
O=C1C[C@@H](c2ccc(O)cc2)Oc2cc(O)cc(O)c21 [Naringenin],Inhibition (%),at 100 μM polyphenol,88.5 (100 μM) %
O=c1c(-c2ccc(O)c(O)c2)coc2cc(O)cc(O)c12 [Orobol],IC50 (μM),,3.311 (3.047–3.598) μM
same,IC50,listed as orobol,3.31 µM
same,fold lower IC50 compared with luteolin,ratio of IC50 values,2 fold
O=C(CCc1ccc(O)cc1)c1c(O)cc(O)cc1O[C@@H]1O[C@H](CO)[C@@H](O)[C@H](O)[C@H]1O [Phloridzin],Inhibition (%),at 50 μM polyphenol,Ineffective
same,Inhibition (%),"at 50 μM polyphenol, listed as phloridzin",completely ineffective
OC[C@H]1O[C@@H](Oc2cc(O)cc(/C=C/c3ccc(O)cc3)c2)[C@H](O)[C@@H](O)[C@@H]1O [Piceid],Inhibition (%),at 50 μM polyphenol,28%
O=c1c(O)c(-c2ccc(O)c(O)c2)oc2cc(O)c(O)c(O)c12 [Quercetagetin],IC50 (μM),,0.096 (0.083–0.109) μM
same,fold more potent VEGF inhibitor than quercetin,ratio of IC50 values,sevenfold
O=c1c(O)c(-c2ccc(O)c(O)c2)oc2cc(O)cc(O)c12 [Quercetin],IC50 (μM),,0.754 (0.674–0.842) μM
same,IC50,listed as quercetin,0.75 µM
same,fold lower IC50 compared with (+)‐catechin,ratio of IC50 values,> 250 fold
same,fold lower IC50 compared with luteolin,ratio of IC50 values,10 fold
C[C@@H]1O[C@@H](Oc2c(-c3ccc(O)c(O)c3)oc3cc(O)cc(O)c3c2=O)[C@H](O)[C@H](O)[C@H]1O [Quercitrin],Inhibition (%),at 50 μM polyphenol,Ineffective
same,Inhibition (%),"at 50 μM polyphenol, listed as quercitrin",completely ineffective
COc1cc(O)c2c(=O)c(O)c(-c3ccc(O)c(O)c3)oc2c1 [Rhamnetin],IC50 (μM),,0.547 (0.527–0.568) μM
C[C@@H]1O[C@@H](OC[C@H]2O[C@@H](Oc3c(-c4ccc(O)c(O)c4)oc4cc(O)cc(O)c4c3=O)[C@H](O)[C@@H](O)[C@@H]2O)[C@H](O)[C@H](O)[C@H]1O [Rutin],Inhibition (%),at 50 μM polyphenol,Ineffective
same,Inhibition (%),"at 50 μM polyphenol, listed as rutin",completely ineffective
COc1ccc(-c2cc(=O)c3c(OC)c(OC)c(OC)cc3o2)cc1OC [Sinensetin],Inhibition (%),at 100 μM polyphenol,Ineffective (100 μM)
same,Inhibition (%),"at 100 μM polyphenol, listed as sinensetin",inhefective
COc1ccc(-c2oc3cc(O)cc(O)c3c(=O)c2O)cc1O [Tamarixetin],Inhibition (%),at 100 μM polyphenol,100 (100 μM) %
O=C1c2c(O)cc(O)cc2O[C@H](c2ccc(O)c(O)c2)[C@H]1O [Taxifolin],Inhibition (%),at 100 μM polyphenol,12.3 (100 μM) %
